Results published in paper PMC6324689 (Oncotarget, 2018).

Molecular target: T1, BCRP (Homo sapiens, UniProt Q9UNQ0)
T1 construct: host or cells: MDCKII
T1 sequence (Q9UNQ0 1-655): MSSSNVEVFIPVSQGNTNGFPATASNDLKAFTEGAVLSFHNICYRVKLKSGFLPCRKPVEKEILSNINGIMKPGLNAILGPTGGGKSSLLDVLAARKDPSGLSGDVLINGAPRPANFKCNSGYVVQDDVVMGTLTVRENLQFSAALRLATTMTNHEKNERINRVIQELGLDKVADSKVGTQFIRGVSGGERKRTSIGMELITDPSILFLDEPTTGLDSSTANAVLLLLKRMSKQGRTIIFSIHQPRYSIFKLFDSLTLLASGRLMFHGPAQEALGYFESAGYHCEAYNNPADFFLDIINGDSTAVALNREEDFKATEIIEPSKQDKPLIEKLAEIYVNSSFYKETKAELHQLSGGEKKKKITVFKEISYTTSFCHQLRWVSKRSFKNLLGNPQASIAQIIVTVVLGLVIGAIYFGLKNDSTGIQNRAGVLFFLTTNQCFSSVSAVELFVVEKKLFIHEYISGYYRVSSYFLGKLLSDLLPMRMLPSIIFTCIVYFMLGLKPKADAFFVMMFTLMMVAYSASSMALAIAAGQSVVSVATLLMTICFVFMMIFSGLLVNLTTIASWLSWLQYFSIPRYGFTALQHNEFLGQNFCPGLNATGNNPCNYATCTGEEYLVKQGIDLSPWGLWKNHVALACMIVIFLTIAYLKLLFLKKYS
Assay: MDCKII-BCRP monolayer bidirectional transport assay
Type: in vitro ADME
Conditions: MDCKII-BCRP cells; for Papp A→B at 120 min, 1 μM / Papp B→A at 120 min, 1 μM / Papp A→B at 120 min, 10 μM / Papp B→A at 120 min, 10 μM / Papp A→B at 120 min, 100 μM / Papp B→A at 120 min, 100 μM: human
Description: The monolayer assays were performed using parental and BCRP or MDR1 transfected MDCKII cell monolayers. […] Transfected and parental MDCKII cells were cultured on the inserts with 100 μL medium per well on the apical side and 25 mL in a single-well receiver tray for all 24 wells on the basolateral side, for 96 hours. Medium was changed 24 hours before the experiment. Permeability incubations were carried out in Hank’s Buffered Salt Solution (HBSS) at 37 ± 1°C. […] LY samples (100 μL from basolateral wells) were analyzed by measuring fluorescence with the following wavelengths: excitation – 430 nm, emission – 520 nm. Trans-epithelial electric resistance (TEER) of each well was measured to confirm the confluency of the monolayers after the experiments. The assays were conducted according to the actual SOLVO MDCKII-BCRP and MDCKII-MDR1 monolayer assay protocols (SOP). […] Cells were pre-incubated in assay buffer for 10 minutes to allow cells adjusting to the medium. Assay buffer containing the test articles (separately) at three concentrations (1 μM, 10 μM and 100 μM) was then added to the appropriate apical (100 μL) or basolateral (600 μL) chamber. […] The prazosin or digoxin efflux ratio was determined as a positive control for BCRP or MDR1 function, respectively. […] Bidirectional transport of the test articles in control, MDCKII-BCRP and MDCKII-MDR1 cells was determined by LC-MS/MS.

| SMILES | Net ER (1 μM) | Net ER (10 μM) | Net ER (100 μM) | Papp A→B at 120 min, 1 μM (1 μM) | Papp B→A at 120 min, 1 μM (1 μM) | Papp A→B at 120 min, 10 μM (10 μM) | Papp B→A at 120 min, 10 μM (10 μM) | Papp A→B at 120 min, 100 μM (100 μM) | Papp B→A at 120 min, 100 μM (100 μM) |
| --- | --- | --- | --- | --- | --- | --- | --- | --- | --- |
| O=C(c1cc(Cc2n[nH]c(=O)c3ccccc23)ccc1F)N1CCN(C(=O)C2CC2)CC1 [Olaparib] | 32.97 ± 9.58 | 71.22 ± 14.97 | 50.54 ± 13.65 | 1.12 ± 1.04 ×10⁻⁶ cm/s | 41.4 ± 4.35 ×10⁻⁶ cm/s | 0.59 ± 0.33 ×10⁻⁶ cm/s | 44.1 ± 2.65 ×10⁻⁶ cm/s | 0.9 ± 0.22 ×10⁻⁶ cm/s | 46.8 ± 3.4 ×10⁻⁶ cm/s |
| NC(=O)c1cccc2cn(-c3ccc([C@@H]4CCCNC4)cc3)nc12 [Niraparib, 2-{4-[(3S)-piperidin-3-yl]phenyl}-2H-indazole-7-carboxamide] | 8.86 ± 3.28 | 24.73 ± 6.47 | 9.58 ± 1.70 | 4.83 ± 2.29 ×10⁻⁶ cm/s | 52.1 ± 3.09 ×10⁻⁶ cm/s | 2.27 ± 0.7 ×10⁻⁶ cm/s | 59.6 ± 3.65 ×10⁻⁶ cm/s | 4.1 ± 0.13 ×10⁻⁶ cm/s | 43.1 ± 2.62 ×10⁻⁶ cm/s |
